Consider one cell line from the supplement of paper PMC10307832.

Holding throughout (test): relative viability (nuclei count vs DMSO), 5 days (fraction); higher = more cells survive
Compound in the assay “Bortezomib + Pemetrexed”: CC(C)C[C@H](NC(=O)[C@H](Cc1ccccc1)NC(=O)c1cnccn1)B(O)O [Bortezomib] + Nc1nc2[nH]cc(CCc3ccc(C(=O)N[C@@H](CCC(=O)O)C(=O)O)cc3)c2c(=O)[nH]1 [Pemetrexed] (partner 0.2 µM)
Summed up: (§1)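 Lung cancer cell lines, seeded in 1536-well plates, were treated the following day by pin tool with a single drug or with five library-drug doses (not always all listed) in √10 steps on top of a fixed anchor-drug dose. Cells were fixed and nuclei stained in one step after 5 days, and nuclei were counted. Relative viability is the nuclei count for treated wells divided by that for vehicle wells, reported as medians of duplicate plates.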

Compound in the assay “Bortezomib + Vorinostat”: CC(C)C[C@H](NC(=O)[C@H](Cc1ccccc1)NC(=O)c1cnccn1)B(O)O [Bortezomib] + O=C(CCCCCCC(=O)Nc1ccccc1)NO [Vorinostat] (partner 1 µM)
Summed up:
as §1

Compound in assay [1]: CC1=CC(=NN1)NC2=CC(=NC(=N2)/C=C/C3=CC=CC=C3)N4CCN(CC4)C + CS(=O)(=O)CCNCc1ccc(-c2ccc3ncnc(Nc4ccc(OCc5cccc(F)c5)c(Cl)c4)c3c2)o1 [Lapatinib] (partner 2 µM)
The method, boiled down: as §1

Compound in the assay “Obatoclax + Olaparib”: COC1=CC(c2cc3ccccc3[nH]2)=N/C1=C\c1[nH]c(C)cc1C [Obatoclax] + O=C(c1cc(Cc2n[nH]c(=O)c3ccccc23)ccc1F)N1CCN(C(=O)C2CC2)CC1 [Olaparib] (partner 8 µM)
The method, boiled down:
as §1

Turning to NCI-H650, the relative viability is 0.914 with Bortezomib + Pemetrexed (first compound 0.0002 µM); 0.997 in the assay with Bortezomib + Pemetrexed (first compound 0.000632 µM); 0.878 with Bortezomib + Pemetrexed (first compound 0.002 µM); 0.85 in the assay with Bortezomib + Pemetrexed (first compound 0.006325 µM); 0.16 with Bortezomib + Pemetrexed (first compound 0.02 µM); 0.395 with Bortezomib + Vorinostat (first compound 0.0002 µM). For the same cell line, the relative viability turned out to be 0.566 with Bortezomib + Vorinostat (first compound 0.000632 µM); 0.452 with Bortezomib + Vorinostat (first compound 0.002 µM); 0.429 in the assay with Bortezomib + Vorinostat (first compound 0.006325 µM); 0.121 in the assay with Bortezomib + Vorinostat (first compound 0.02 µM); 0.804 in assay [1] (first compound 0.08 µM); 1.15 in assay [1] (first compound 0.253 µM). In addition, the relative viability in assay [1] (first compound 0.8 µM) amounted to 0.839; in assay [1] (first compound 2.53 µM), 0.378; in assay [1] (first compound 8 µM), 0.271; with Obatoclax + Olaparib (first compound 0.01 µM), 0.385; in the assay with Obatoclax + Olaparib (first compound 0.03162 µM), 0.388; with Obatoclax + Olaparib (first compound 0.3162 µM) it was 0.264. Further, in the assay with Obatoclax + Olaparib (first compound 1 µM), the relative viability was 0.18.
